Test results reported in patent US4150970A, “Growth regulator for plants” (Board of Trustees of Michigan State University, priority 1977, dated 1979).
In brackets after ≈: the same amount, converted by molar mass. Entries after “also recorded” stand apart in the source; their conditions may differ.

What was measured:
IR-8 rice seedlings [1] = assay: Dry weight and total protein of 18-day-old rice seedlings in light and dark for 24 hours (Examples X and XVII); type: in vivo; settings: for Dry Wt, Entire Plant / Dry Wt, Expanded leaves / Dry Wt, Roots / Dry Wt, Sheaths: 24 hours
Protocol: (§1) Rice seed cv. IR-8, or Starbonnet was surface treated with 0.1 percent mercuric chloride and planted in 77 cc plastic cups containing vermiculite and watered with one-fourth Hoagland's nutrient solution containing 3 mM of nitrogen at pH 5.0. After 10 days, seedlings were transplanted to 220 cc specimen cups wrapped in aluminum foil and containing 180 cc of the same Hoagland's nutrient solution. Four seedlings were suspended in the solution with a sponge rubber disc. The plants were grown under a 8 h night at 25° C. and a 16 h day at 30° C. with 21 and 8 μwatts per cm^2 in the blue and red spectra respectively. In the test with varying light intensity the high light intensity was 30 13 and the low intensity was 15 and 8 μwatts per cm^2 for the blue and red spectra respectively. The nutrient solution was renewed every 2 or 3 days. After one week the plants were sorted for size and similar sized plants assigned to the same block for the experiment. Prior to the initiation of a test the plants in each cup were assigned treatment numbers by use of a random number table. […] Sixteen hours prior to a test the foil wrapped cups were tared, and filled with one-half Hoaglands solution containing 6 mM nitrogen. Eighteen μl of chloroform or chloroform containing 1.8 μg triacontanol were placed on 2 cm^2 of Whatman No. 1 filter papers, air dried and placed in the specimen cups. This concentration of 10 μg triacontanol/liter was used for all tests described in the following Examples except where specifically indicated to the contrary. Immediately prior to the test the cups were all brought up to 180 ml. including a set of cups without plants to measure evaporation.
Plants were placed in 20×32 cm glass jars fitted with gas inlet and outlet ports. Three jars containing 2 cups each were used for a total of 24 plants for each treatment. The plants were ventilated with air or freed of CO2 by passing it through ascarite and then humidified. The flow rate was approximately 300 ml/minute. Carbon dioxide-free air was also used to purge the appropriate jars during a two minute period required to place the plants in the jars. The N analyses were done by the automated micro-Kjelldahl procedure of Ferrari (1960).
Using the materials and procedures set forth above, dry weight and total protein (nitrogen) content of 18-day-old "IR-8" rice seedlings grown in light and dark for 24 hours with or without triacontanol was determined. Table X sets forth the results:
This example was run to determine the percent change in dry weight of whole 18-day-old "IR-8" rice seedlings treated with triacontanol in the light and dark over a 24 hour period expressed as percent change from zero time. The dry weight at zero time was 50.8 mg per seedling.

IR-8 rice seedlings [2] = assay: Total protein content of rice seedlings grown in the dark for six hours (Example VIII); type: in vivo
Protocol: as §1
Plants were placed in 20×32 cm glass jars fitted with gas inlet and outlet ports. Three jars containing 2 cups each were used for a total of 24 plants for each treatment. The plants were ventilated with air or freed of CO2 by passing it through ascarite and then humidified. The flow rate was approximately 300 ml/minute. […]
The total protein (nitrogen) content of 17 day old "IR-8" rice seedlings was determined, where […]

plants = assay: Plant growth regulation (general statement); type: in vivo; settings: crops
[3] = system: Heinz 1350 tomato seedlings; assay: Tomato seedlings in nutrient culture, two application methods (Table XIII); type: in vivo
Text: These tests were run to determine the response of "Heinz 1350" tomato seedlings to applications of triacontanol in nutrient culture, in two different application methods.

[4] = system: Starbonnet rice seedlings; assay: Growth analysis of Starbonnet rice seedlings under different light intensities (Example VI); type: in vivo; design: key to NAR: mg plant weight per cm^2 leaf area per day; RGR / LAR: unit not given here
Protocol: as §1
The plants were disected at harvest into shoots and roots. The expanded leaves were cut at the ligule and the newest leaf at the point it entered the sheath. The surface area of expanded leaves were measured using a Lambda Model LI-3000 planimeter. The plants were dried to constant weight in an oven at 100° C. and the roots, expanded leaves, and sheaths were weighed separately.
Growth analysis was conducted according to Evans (1972). The Net Assimulation Rate (NAR) is the increase in plant weight per unit of leaf area over time interval where: W=total weight per plant in mg, T=time in days, and L=leaf area in cm^2. [formula]
The relative growth rate (RGR) is the increase in plant weight per unit of original weight over a time interval and is obtained by: [formula]
The leaf area ratio is the ratio of leaf area to […] over a time interval. [formula]
This Example presents a growth analysis of `Starbonnet` rice seedlings treated with triacontanol under different light intensities, "Low" and "High" intensities are defined above, and in the Table VI these designations represent the light to which each plant was subjected.

Solubility = type: physicochemical
Coho barley seedlings = assay: Barley seedlings, triacontanol solutions applied to soil (Example XV); type: in vivo
Text: To study the growth of 25-day-old "Coho" barley seedlings treated with triacontanol solutions applied to the soil in the greenhouse. Treatments were started when seedlings were 13 days old.

IR-8 rice seedlings [5] = assay: Single versus multiple applications on rice seedlings (Example XI); type: in vivo
Protocol: as §1
Water uptake was measured by weighing the cups after removal of the plants and subtracting the tare and the water evaporated. For tests continued for more than one day, the solution used was measured every 3 days and new Hoagland's added and the pH maintained at 5.0 with sulfuric acid.
In this Example, the experiment determined the growth of "IR-8" rice seedlings by comparing a single application of triacontanol with multiple applications of triacontanol. Triacontanol was applied at the beginning of each indicated period.

CCCCCCCCCCCCCCCCCCCCCCCCCCCCCCO [Triacontanol, 1-triacontanol]
dry weight in the dark versus dark controls (IR-8 rice seedlings [1]; dark, 6- and 24-hour harvests): gained significantly more weight than the dark controls | Dry Wt, Entire Plant (IR-8 rice seedlings [1]; dark): 55.0 mg/plant | Dry Wt, Expanded leaves (IR-8 rice seedlings [1]; dark): 22.0 mg/plant | Dry Wt, Roots (IR-8 rice seedlings [1]; dark): 20.3 mg/plant | Dry Wt, Sheaths (IR-8 rice seedlings [1]; dark): 12.8 mg/plant | Dry Wt, Entire Plant (IR-8 rice seedlings [1]; light): 72.9 mg/plant | Dry Wt, Expanded leaves (IR-8 rice seedlings [1]; light): 30.3 mg/plant | Dry Wt, Roots (IR-8 rice seedlings [1]; light): 24.6 mg/plant | Dry Wt, Sheaths (IR-8 rice seedlings [1]; light): 18.0 mg/plant | higher concentration of total protein in 4th leaf than the control (IR-8 rice seedlings [2]): 11% | total increase in protein per plant versus zero time (IR-8 rice seedlings [2]): 18% | total protein per (4th) leaf (IR-8 rice seedlings [2]): doubling | application rate that substantially increases crop growth (plants): ≥ 0.4 grams per acre | Dry wt ([3]; filter paper, 0.01): 382 mg/seedling | Dry wt ([3]; filter paper, 0.10): 430 mg/seedling | Dry wt ([3]; foliar, 0.01): 405 mg/seedling | Dry wt ([3]; foliar, 0.10): 407 mg/seedling | LAR ([4]; high light, 0-4 hours): 3.31 | NAR ([4]; high light, 0-4 hours): 6.42 | RGR ([4]; high light, 0-4 hours): 0.89 | LAR ([4]; high light, 5-8 hours): 3.45 | NAR ([4]; high light, 5-8 hours): 3.96 | RGR ([4]; high light, 5-8 hours): 0.57 | LAR ([4]; high light, 9-16 hours): 3.74 | NAR ([4]; high light, 9-16 hours): 3.19 | RGR ([4]; high light, 9-16 hours): 0.50 | dry weight accumulation per leaf area at low light versus control at high light ([4]; low light intensities): as much dry weight per cm^2 of leaf area at low light intensities as the control plants did at the higher light intensity; also recorded: as much dry weight per unit of leaf area at low light intensities as the control plants did at higher light intensities | LAR ([4]; low light, 0-4 hours): 3.76 | NAR ([4]; low light, 0-4 hours): 3.77 | RGR ([4]; low light, 0-4 hours): 0.59 | LAR ([4]; low light, 5-8 hours): 3.90 | NAR ([4]; low light, 5-8 hours): 4.14 | RGR ([4]; low light, 5-8 hours): 0.67 | LAR ([4]; low light, 9-16 hours): 4.20 | NAR ([4]; low light, 9-16 hours): 2.81 | RGR ([4]; low light, 9-16 hours): 0.49 | solubility in alcohol, qualitative (Solubility; alcohol): soluble in alcohol | solubility in ether and benzene, qualitative (Solubility; ether and benzene): very soluble in ether and benzene | solubility in water, qualitative (Solubility; water): relatively water insoluble | solubility (Solubility; water, read-out: solubility limit in water): ~0.3 µg/mL (≈ 0.684 µM) | Seedling wt (Coho barley seedlings; nutrients 0, triacontanol 0.01 mg/L): 275 mg/shoot | Seedling wt (Coho barley seedlings; nutrients 0, triacontanol 0.10 mg/L): 270 mg/shoot | Seedling wt (Coho barley seedlings; nutrients 100 mg 20-20-20/L, triacontanol 0.01 mg/L): 310 mg/shoot | Seedling wt (Coho barley seedlings; nutrients 100 mg 20-20-20/L, triacontanol 0.10 mg/L): 316 mg/shoot | Seedling wt (Coho barley seedlings; nutrients 1000 mg 20-20-20/L, triacontanol 0.01 mg/L): 438 mg/shoot | Seedling wt (Coho barley seedlings; nutrients 1000 mg 20-20-20/L, triacontanol 0.10 mg/L): 442 mg/shoot | Dry wt (IR-8 rice seedlings [5]; multiple applications): 286 mg/seedling | Water uptake per day (IR-8 rice seedlings [5]; multiple applications, time period 0-2): 14.2 mL | Water uptake per day (IR-8 rice seedlings [5]; multiple applications, time period 3-5): 22.6 mL | Water uptake per day (IR-8 rice seedlings [5]; multiple applications, time period 6-7): 33.5 mL | Water uptake per day (IR-8 rice seedlings [5]; multiple applications, time period 8-9): 40.2 mL | Water uptake per day (IR-8 rice seedlings [5]; multiple applications, time period 10-12, two cups dry at harvest): 57.0 mL | Dry wt (IR-8 rice seedlings [5]; single application): 273 mg/seedling | Water uptake per day (IR-8 rice seedlings [5]; single application, time period 0-2): 13.9 mL | Water uptake per day (IR-8 rice seedlings [5]; single application, time period 3-5): 21.0 mL | Water uptake per day (IR-8 rice seedlings [5]; single application, time period 6-7): 30.0 mL | Water uptake per day (IR-8 rice seedlings [5]; single application, time period 8-9): 35.8 mL | Water uptake per day (IR-8 rice seedlings [5]; single application, time period 10-12, two cups dry at harvest): 56.6 mL
